In data set [1] the test system is NIDDM male mice (C57BLKS/J-m+/+Lepr db). Briefly: Glucose reduction in db/db mouse model, oral once daily for 7 days (Example 111). Type of data set: in vivo. Particulars: for Serum Glucose % Pre-Treatment Baseline: 90 min post-dosing. The procedure: Non-insulin dependent diabetic mellitus (NIDDM) male mice (C57BLKS/J-m+/+Lepr db) weighing 60±5 g (12 weeks of age) provided by the Institute for Animal Reproduction (IAR, Japan) were used. […] The animals were housed in Individually Ventilated Cages Racks (IVC Racks, 36 Mini Isolator systems) throughout the experiment. Each APEC cage was autoclave sterilized and contained 4 mice and then maintained in a hygienic environment under controlled temperature (22-24° C.) and humidity (60-70%) with 12-hour light/dark cycles. The animals were given sterilized lab Chow and sterilized distilled water ad libitum.
Sterilized distilled water, ELISA Insulin Assay Kit (SPI bio, France), glucose (Merck), Glucose-HA assay kit (Wako, Japan), methylcellulose (Sigma), and troglitazone (BioMOL).
Compound 1 was suspended in 0.5% methylcellulose. Compound 1 at 100, 50 and 30 mg/kg as well as vehicle were administered to NIDDM male mice weighing 60±5 g (11-12 weeks of age), orally once daily for 7 consecutive days starting immediately after the first blood sampling (pre-treatment on day 1). Blood sampling was repeated at 90 minutes post-dosing on day 3 and day 7. The dosing volume was 10 ml/kg. Serum glucose level in the pre- and post-treatment periods were determined by enzymatic (Mutaratase-GOD) method. Post-treatment serum glucose value expressed in percentage of respective pre-treatment values were calculated and unpaired Student's t test was then applied for comparison between compound treated and vehicle control groups. Differences were considered significant at P<0.05. In addition, the liver weight and body weight were recorded to determine the ratio of liver to body weight.

Data set [2] has as its system obese diabetic mice (C57BL/6 ob/ob). As to the kind of experiment: Glucose reduction in ob/ob mouse model (Example 113). Type of data set: in vivo. Particulars: 3.5 hours after administration. On the procedure: Genetically mutated obese diabetic mice (C57BL/6 ob/ob) were purchased from the Jackson Laboratory (Bar Harbor, Me.). Eight weeks old male animals were employed in this study. After acclimation, mice were randomized for equivalent mean blood glucose on day 0 with eight mice each group, and received either vehicle or Compound 1 in 0.5% methylcellulose (ps400) by oral gavage once daily for 8 consecutive days. Plasma glucose was monitored 3.5 hours after administration of test compound on day 3 and 8.

Data set [3] has as its system C57BLKS/J db/db male mice. As to the kind of experiment: Glucose, insulin and triglyceride reduction in db/db mouse model, 10 days (Example 115). Type of data set: in vivo. The settings on record: orally once daily for 10 days. The procedure:
Compound 1 was evaluated for its effect on plasma glucose, triglyceride and insulin in C57BLKS/J db/db male mice.
Compound 1 or vehicle was administered orally once daily for 10 consecutive days. Animals were divided into either vehicle or treatment groups (n=8 per group), and blood glucose, serum triglyceride and insulin were tested at the end of assay by Ani Lytic Inc (Baltimore, Md.).

Data set [4] relates to C57BLKS/J db/db male mice. As to the kind of experiment: Glucose reduction, Compound 1 in combination with rosiglitazone, db/db mice (Example 116, FIG. 2). Particulars: Compound 1 alone, 50 mg/kg. Type of data set: in vivo, mouse.
In a further data set the test system is Male SD rats. Particulars: rat, in vivo. The procedure: Male SD rats weighing 350-420 g were anesthetized with 2-3% isoflurane. The femoral artery and vein were catheterized and connected to a mean arterial blood pressure (MAP) and heart rate (HR) monitor and a continuous intravenous infusion pump. Under anesthesia, MAP and HR were recorded 10-20 minutes prior to and during the continuous intravenous infusion of test compounds for 60-70 minutes. The infusion rate, 0.14-0.16 ml/kg/minute, was determined on the basis of vehicle tolerance. The infusion doses, 1.0-1.25 mg/kg/minute, were selected, depending upon the solubility of the compound and effects on MAP and HR of the positive control compounds at the lethal dose. The maximal effective dose or lethal dose of test compounds were determined accordingly.

Data set [5] relates to C57BLKS/J-m+/+Lepr db male animals. As to the kind of experiment: Glucose reduction by Compound 9 in db/db mouse model (Example 112). Type of data set: in vivo. Particulars: 3.5 hours after administration. The procedure:
C57BLKS/J-m+/+Lepr db male animals (8 weeks old) were purchased from the Jackson Laboratory (Bar Harbor, Me.) in this study. All animals were acclimated for at least one week, and randomized for equivalent mean blood glucose on day 0. Animals were divided into either vehicle or treatment groups (n=8/group). Compound 9 was formulated in 0.5% methylcellulose (ps400) and administered by oral gavage at 50 mg/kg once daily for 7 consecutive days. Blood glucose was monitored using One Touch Basic glucose monitor (Abbott) 3.5 hours after administration of test compound on day 3 and 7.

Another data set concerns primary rat hepatocytes. As to the kind of experiment: In vitro cytotoxicity study on primary rat hepatocytes (MTS). The settings on record: Hepatocyte, 20 hours treatment with 0.4, 2, 10 and 50 μM, absorbance at 490 nm, read-out: Average EC50 (hepatocytes from at least 2 rats). Type of data set: cell-based. On the procedure:
Male SD rats having body weights of approximately 200 g were used for the study. Hepatocytes were freshly isolated and seeded with 15,000 cells/well in 96 wells coated with 100 μl collagen. The hepatocytes were cultured for 3-4 hours with HCM Bulletkit medium (Clonetics #CC-3198) then treated with 0.4 μM, 2 μM, 10 μM and 50 μM of a test compound for 20 hours. Flepatocytes were then incubated with MTS reagent (Promega #G5421) for 2-3 hours and absorbance in each well at […] was measured to determine the number of living cells in each well (the absorbance at 490 nm is directly proportional to the number of living cells in the well). The EC50 for each test compound was calculated with the Excel Xlfit wizard program based on the optical density values compared with vehicle treated cells.

Setting [6] is: day 3, 50 mg/kg oral gavage once daily.

Molecules are shown by their SMILES.

For `CCOC(=O)C1=C(COCCN)NC2=C(C(=O)CC(C)(C)C2)C1c1ccccc1Cl` (centres unmarked) [Compound 1, 2-(2-amino-ethoxymethyl)-4-(2-chloro-phenyl)-7,7-dimethyl-5-oxo-1,4,5,6,7,8-Hexahydro-quinoline-3-carboxylic acid ethyl ester], the “Serum Glucose % Pre-Treatment Baseline” value is recorded as 96.7 ± 2.2 % in data set [1] (Day 3, 30 mg/kg orally once daily); 86.5 ± 3.5 % in data set [1] (Day 3, 50 mg/kg orally once daily); 85.6 ± 2.4 % in data set [1] (Day 3, 100 mg/kg orally once daily); 91.6 ± 3.7% in data set [1] (Day 7, 30 mg/kg orally once daily); 82.9 ± 4.4 % in data set [1] (Day 7, 50 mg/kg orally once daily); 80.9 ± 3.3 % in data set [1] (Day 7, 100 mg/kg orally once daily). The “liver weight relative to body weight” value in data set [1] (any treatment group (30, 50, 100 mg/kg, 7 days) vs vehicle control) is recorded as “No significant difference”. The “percent normalized reduction of serum glucose vs vehicle” value in data set [2] (setting [6]) is reported as 30%; in data set [2] (day 8, 50 mg/kg oral gavage once daily), 22.3%. In data set [3], the “% Reduction (relative to vehicle), Glucose” value came out at 14%. The “% Reduction (relative to vehicle), Insulin” value in data set [3] worked out at 19%. Moreover, the “% Reduction (relative to vehicle), Triglyceride” value in data set [3] was found to be 17%. For the same molecule, in data set [3] (end of assay), the Glucose was 327.50 mg/dL. Further, the Insulin in data set [3] (end of assay) came to 11.32 ng/mL. The molecule also came in with a Triglyceride in data set [3] (end of assay) of 336.13 mg/dL. For the same molecule, the “blood glucose level, monotherapy” value in data set [4] is “reduced glucose levels”. Besides, in the data set on Male SD rats, the “Lethal Dose” value is given as greater than 70 mg/kg.

In the case of `CCOC(=O)C1=C(COCCN)NC2=C(C(=O)CC(C)(C)C2)C1c1ccccn1` (centres unmarked) [Compound 9, 2-(2-amino-ethoxymethyl)-7,7-dimethyl-5-oxo-4-pyridin-2-yl-1,4,5,6,7,8-hexahydro-quinoline-3-carboxylic acid ethyl ester], the “percent normalized reduction in blood glucose relative to vehicle control” value is 13.6% in data set [5] (setting [6]) and 21.1% in data set [5] (day 7, 50 mg/kg oral gavage once daily). The EC50 in the data set with primary rat hepatocytes is greater than 50 µM.

Source of the values: US20050203119A1, “Dihydropyridine compounds for treating or preventing metabolic disorders” (priority 2003, published 2005).
